Data published in PubChem BioAssay (NCI).
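Five concentrations, 48 hours, 96-well plates. TGI: concentration producing complete growth inhibition.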

Assays:
Assay in all cases: DTP human tumour cell line panel, 48 h
SK-MEL-5 melanoma = tested on: SK-MEL-5 melanoma
UACC-62 melanoma = tested on: UACC-62 melanoma
HCC-2998 colon = tested on: HCC-2998 colon
SR leukemia = tested on: SR leukemia
MOLT-4 leukemia = tested on: MOLT-4 leukemia
NCI-H226 lung = tested on: NCI-H226 lung
TK-10 renal = tested on: TK-10 renal
SF-295 CNS = tested on: SF-295 CNS
COLO 205 colon = tested on: COLO 205 colon
RXF 393 renal = tested on: RXF 393 renal

SMILES	TGI (SK-MEL-5 melanoma) [µM]	TGI (UACC-62 melanoma) [µM]	TGI (HCC-2998 colon) [µM]	TGI (SR leukemia) [µM]	TGI (MOLT-4 leukemia) [µM]	TGI (NCI-H226 lung) [µM]	TGI (TK-10 renal) [µM]	TGI (SF-295 CNS) [µM]	TGI (COLO 205 colon) [µM]	TGI (RXF 393 renal) [µM]
CC(=O)OC1C(C)OC(OC2C[C@](O)(C(C)=O)Cc3c(O)c4c(c(O)c32)C(=O)c2ccccc2C4=O)C(F)C1OC(C)=O (stereo partly drawn)	2.18	2.81	16.6	0.887	0.112	2.86	4.29	1.47	> 100	18.9
O=C1CSC(c2cccc(Oc3ccccc3)c2)N1c1cc(Cl)ccc1Cl (stereo not drawn)	31.3	31.5	28.6	44	57.8	46.7	55.1	55.3	90.8	40.3
C[C@@H](c1ccccc1)N(CC#N)[C@H]1CCC[C@]1(O)/C=C/c1ccc2c(c1)OCO2	> 25	7.67	> 25	> 25	> 25	> 25	> 25	> 25	> 25	> 25
CCOP(=O)(OCC)/C(C#N)=C(\C)c1ccco1	> 10	> 10	> 10	> 10	> 10	> 10	> 10	> 10	> 10	> 10
CC(C)[C@H](NC(=O)OCc1ccccc1)C(=O)N[C@H](/C=C/C(=O)OC(C)(C)C)CO	> 100	> 100	> 100	> 100	> 100	> 100	> 100	> 100	> 100	> 100
O=C1Cc2c(-c3ccccc3)cc(-c3ccc(Cl)cc3)nc2-c2ccccc2N1	17	> 31	33.4	> 100	> 84.8	22	14.3	23.7	18	17.3
O=C(NCc1ccc(Cl)c(Cl)c1)c1nc2ccccc2nc1NCc1ccc(Cl)c(Cl)c1	> 100	> 100	> 100	> 100		> 100	> 100	> 100	> 100	> 100
O=CC12CCCN1CCC2	> 100	> 100	> 100	> 100	> 100	> 100	> 100	> 100	> 100	> 100
CC(=O)OC/C=C/Cn1nc(Br)c(=O)[nH]c1=O	> 100	> 100	> 100	> 100	> 100	> 100	> 100	> 100	> 100	> 100
N#Cc1c2c(c(Nc3ccc(Cl)cc3)n3c1nc1ccccc13)CCCC2	> 100	> 100	> 100	> 100	> 100	> 100	> 100	> 100	> 100	> 85.1
CN1Cc2c(ccc3c2OCO3)[C@@H]2[C@H](O)Cc3cc4c(cc3[C@@H]21)OCO4	40	> 24	4.49	> 100	> 57.1	9.94	> 100	21.6	4.55	> 26.2
CC(C)(C)OC(=O)NCCCCC1NC(=O)[C@@H]2Cc3c([nH]c4ccccc34)C(c3ccccc3)N2C1=O (stereo partly drawn)	97.8	95.6	40.3	62.8	60.2	> 100	> 100	45.4	46.9	42.2
NS(=O)(=O)C1CCCCC1C(=O)NNC(=O)C(=O)Nc1nc(=S)[nH][nH]1 (stereo not drawn)	> 100	> 100	> 100	> 100	> 100	> 100	> 100	> 100	> 100	> 100
COc1cc(COC(=O)NC(Cc2cccs2)C(=O)O)c([N+](=O)[O-])cc1OC (stereo not drawn)	> 100	> 100	> 100	> 100	> 100	> 100	> 100	> 100	> 100	> 100
O=C(CCc1ccccc1)NCCc1ccc(O)c(O)c1	> 50.6	> 100	> 100	> 77.3	> 89.4	> 100	> 100	> 94.9	58.5	> 100
NS(=O)(=O)c1cc2c(cc1Cl)NC(C(=O)NNC(=O)c1ccncc1)=NS2(=O)=O	> 100	> 100	> 100	> 100	> 100	> 100	> 100	> 100	> 100	> 100
O=C(c1ccccc1)n1c2ccc(Br)cc2c2nc3ccccc3nc21	> 100	> 100	> 100	> 100	> 100	> 100	> 100	> 100	> 100	> 100
CCOC(=O)c1ccc(-c2cccs2)[nH]1	> 100	> 100	> 100	> 100	> 100	> 100	> 100	> 100	> 100	> 100
Cc1ccc(C)c(C(=O)CC2OC(O)C(Cl)C2Cl)c1 (stereo not drawn)	> 100	> 100	> 100	> 100	> 100	> 100	> 100	> 100	> 100	86
COc1ccc(NC(=S)Nc2cccc(C)n2)cc1	> 100	> 100	> 100	> 100	> 100	> 100	> 100	> 100	> 100	> 100
CC(=O)Oc1cc(OC(C)=O)c2c(c1C)CC[C@@H]1[C@@H]2CC[C@]2(C)[C@@H](OC(C)=O)CC[C@@H]12	30.8	34.7	36.6	73.6	36.1	34.2	35	38		27.7
